What was measured:
[1] = target: T1, D-Ala-D-Ala ligase (Escherichia coli, UniProt P07862); assay: Stopped flow fluorescence quenching studies of nucleotide binding to ligase; settings: for Kd: partially closed complex, product of Kd1 and Kd2, read-out: final (overall) Kd
Protocol: We have discovered a significant fluorescence quenching upon binding of ATP and ADP, which we have exploited to examine mechanistic features of ligase. We have carried out stopped flow studies to look at the binding of ATP and ADP to ligase. These studies were carried out at 4° C. We observe a single exponential fluorescent quenching which is completed in <20 ms. […] This confirms our previous hypothesis about ligase, namely that the enzyme undergoes conformational changes that are an important and integral part of its enzymatic mechanism. This enzyme appears to fall into the category of “induced fit”.
The enzyme undergoes a conformational change to form the partially closed complex EA*. […] For ADP the conformational change increases the affinity of the nucleotide seven-fold for the partially closed complex, with respect to the initial collision complex, leading to an overall Kd of 50 μM. […] To dissociate the ligand, the enzyme has to relax back to the open form. […] In some cases, it can be advantageous for the inhibitor to trigger a further conformational change, perhaps the closure of the omega loop of domain D, leading to a fully closed form of the enzyme.
Stopped flow studies have added to the understanding of the mechanism by which ligase binds ligands, and have confirmed previous suspicions about “induced fit” mechanism. Determining the affinity of high affinity inhibitors (low nM) will be difficult by equilibrium binding methods or steady state enzyme kinetics. Stopped flow studies may well be the only way that the affinity of high affinity inhibitors can be determined with any degree of confidence. The studies can be carried out, for example, using the methods described by Eccleston, J. F. “Stopped-flow Spectrophotometric Techniques” in Spectrophotometry and Spectrofluorimetry a Practical Approach, Ed. D. A. Harris & C. L. Bashford, IRL Press, 1987, p. 137-164.

[2] = target: D-Ala-D-Ala ligase omega loop (D domain) (Escherichia coli, UniProt P07862); assay: Proteolysis (trypsin) assay of omega loop closure; assay type: biochemical
From the text: (§1) We have developed an in vitro assay to look at the closure of the omega loop (i.e., the D domain). The closure of the omega loop is probed by proteolysis.

[3] = target: T1, D-Ala-D-Ala ligase; assay: Affinity for D-Ala-D-Ala ligase relative to ATP (method not given); assay type: binding; settings: given in brackets after ATP
From the text: as §1

[4] = target: T1, D-Ala-D-Ala ligase; assay: D-Ala-D-Ala ligase IC50 determination (PK/LDH coupled assay); assay type: biochemical; settings: control in 1× core buffer; read-out: value (IC50 or Ki) for D-Ala-D-Ala ligase inhibition
From the text: Inhibition of D-Ala-D-Ala ligase can be assayed for using the pyruvate kinase/lactate dehydrogenase (PK/LDH) assay described in Example 2. In the bacterial cell wall synthesis process, the ligase catalyzes the conversion of ATP to ADP concurrent with the ligation of two D-alanine residues. PK then regenerates ATP from the ADP thus created simultaneously with the conversion of phosphopyruvate to pyruvate. LDH catalyzes the reduction of pyruvate to lactate by converting NADH to NAD^+. By monitoring the production rate of NAD^+, D-Ala-D-Ala ligase activity can be ascertained.
The purine derivatives of Example 1 were dissolved in dimethylsulfoxide (DMSO) at a concentration of 100 mM on the day of screening, using a vortex mixer if necessary for dissolution. The solutions were kept at room temperature until screening was completed.
A 10 mM NADH (Sigma) stock solution was prepared fresh on the day of screening by dissolving 32 μmol NADH in 3.2 ml double-distilled water. The NADH solution was kept on ice. […]
At t=18-19 minutes, the substrate solution was taken from 25° C. to a Spectromax® UV-vis spectrophotometer. At t=20 minutes, within a 30 second timeframe, 125 μl of substrate solution was added to each well of columns 1-4, and the absorbance at 340 nm was read. […]

[5] = together with a D-Ala site binding molecule (phosphinate, D-Ala-D-Ala or cycloserine)

| SMILES | increase in affinity by the conformational change (partially closed vs initial collision complex) ([1]; stopped flow, 4° C.) | Kd ([1]; stopped flow, 4° C.) [µM] | omega loop closure (protection from trypsin proteolysis) [2, 5] | also measured |
| --- | --- | --- | --- | --- |
| Nc1ncnc2c1ncn2[C@@H]1O[C@H](COP(=O)(O)OP(=O)(O)O)[C@@H](O)[C@H]1O [ADP] | seven | 50 | stabilize the omega loop closure | affinity for D-Ala-D-Ala ligase relative to ATP ([1]; ADP vs ATP): three; net dissociation rate constant (k−2) ([1]; stopped flow, 4° C.): 72 s⁻¹ |
| Nc1ncnc2c1ncn2[C@@H]1O[C@H](COP(=O)(O)OP(=O)(O)NP(=O)(O)O)[C@@H](O)[C@H]1O [AMPPNP] | – | – | does not support the omega loop closure | – |
| Nc1ncnc2c1ncn2[C@@H]1O[C@H](COP(=O)(O)OP(=O)(O)OP(=O)(O)O)[C@@H](O)[C@H]1O [ATP, adenosine triphosphate] | 3.2 fold | 157 | stabilize the omega loop closure | Kd [3]: 300 µM; koff ([1]; stopped flow, 4° C., read-out: net dissociation rate constant (k−2)): 126 s⁻¹; omega loop closure (protection from trypsin proteolysis) ([2]; nucleotide alone, no D-Ala site binding molecule): cannot close the omega loop |
| Nc1ncnc2c1ncn2[C@@H]1O[C@H](COP(=O)(O)OP(=O)(O)OP(O)(O)=S)[C@@H](O)[C@H]1O [ATPgS] | – | – | stabilize the omega loop closure | – |
| N[C@@H]1CON=C1O [Cycloserine, D-cycloserine] | – | – | – | IC50 [4]: ~150 µM |

From patent US20030119061A1, “Structure-based drug design methods for identifying D-Ala-D-Ala ligase inhibitors as antibacterial drugs” (priority 2001, published 2003)
